Laboratory results from patent US10227349B2, “Pyrazolo[1,5-a]pyrimidine compound” (Eisai R&D Management Co., Ltd., priority 2016, dated 2019).

Experiments:
[1] = test system: OXA-induced enteritis in BALB/c male mice; test: Model mouse for enteritis (OXA-induced, bowel length); format: in vivo; details: po, 48 h, 0.1 mg/mL solution 10 mL/kg orally twice (1 hour before and day after OXA induction), length of colon and rectum two days after induction, read-out: Inhibitory activity on bowel shortening (%)
Method: Generally, the bowel length is known to be shorter during enteritis (Maxwell, J. R. et al. Curr. Protoc. Pharmacol. Chapter 5: Unit 5.58, 2009). The bowel length in an enteritis model was measured to evaluate the effect of the test compound.
The test compound was added to a 0.5% carboxymethyl cellulose solution so as to have a final concentration of 0.1 mg/mL, thereby preparing an administration solution containing the test compound. Hapten used was 4-ethoxymethylene-2-phenyloxazol-5-one (OXA, SIGMA-ALDRICH).
One hundred (100) μL of a solution of OXA diluted to 0.3% with ethanol was applied to the shaved abdominal region of BALB/c male mice (Charles River), 6-10 weeks of age, to create the sensitization. Five days after the sensitization, OXA was intrarectally administered to induce an enteritis reaction. More specifically, a syringe equipped with a sonde for oral administration was inserted into the anus of the mouse anesthetized by the inhalation of isoflurane at a concentration of 4-5% and 50 μL of the OXA solution adjusted to 1% with a solvent of 50% ethanol/50% distilled water was administered into the rectum.
One hour before and on the day following the induction of enteritis, the administration solution containing the test compound (10 mL/kg) was orally administered twice in total to the mice. Two days after the induction of enteritis, the mice were euthanized by cervical dislocation and subsequently the cecum to the anus was collected to measure the combined length of the colon and the rectum using a ruler, thereby evaluating the action of the test compound.
Note that Reference Example 1 in Table 6 is Compound (XIX).

[2] = biological target: T1, PAR2 (Homo sapiens, UniProt P55085); test: Intracellular calcium concentration measurement (trypsin-induced calcium elevation, FDSS6000); format: cell-based; details: HEK293 cells, trypsin 5 U/mL as agonist, test compound added 30 min before measurement; read-out: Inhibitory activity on intracellular calcium elevation (IC50 (nM))
T1 construct: Human embryonic kidney cell line HEK293 cells cultured using DMEM culture medium; endogenous in cells; host or cells: HEK293
T1 sequence (P55085 26-397): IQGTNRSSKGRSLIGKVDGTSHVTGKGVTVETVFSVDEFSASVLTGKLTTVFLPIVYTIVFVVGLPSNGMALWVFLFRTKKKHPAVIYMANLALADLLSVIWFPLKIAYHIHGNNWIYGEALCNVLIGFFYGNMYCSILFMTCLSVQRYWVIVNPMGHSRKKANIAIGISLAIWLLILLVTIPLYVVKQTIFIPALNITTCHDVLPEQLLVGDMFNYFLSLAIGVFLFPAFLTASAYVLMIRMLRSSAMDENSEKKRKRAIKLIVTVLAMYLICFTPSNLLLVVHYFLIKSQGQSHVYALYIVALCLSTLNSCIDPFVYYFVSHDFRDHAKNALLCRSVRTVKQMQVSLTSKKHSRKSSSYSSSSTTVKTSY
Description: In the present specification, examples of the measurement method for the PAR2 inhibitory activity include measurement method for a concentration elevation of intracellular calcium; measurement method for a production increase of intracellular inositol trisphosphate; measurement method for an increase in intracellular protein phosphorylation by protein kinase C and MAP kinase; and measurement method for a production amount or a release amount of inflammation-related physiologically active substances such as cytokine, chemokine, prostaglandin and nitric monoxide. Examples of the measurement method for an elevation of intracellular calcium concentration include a method wherein a calcium-binding fluorescent probe is allowed to be incorporated in advance into a cultured cell line or an animal-derived isolated cell having PAR2, or a cell in which PAR2 is artificially expressed, a protease having the PAR2 activity function such as trypsin or a PAR2 agonist (synthetic peptides such as SLIGKV-NH2 (SEQ ID NO: 1) and SLIGRL-NH2 (SEQ ID NO: 2) is added to activate PAR2 whereby fluctuating intracellular calcium concentrations are detected as changes in the fluorescent signal. Alternatively, it is also possible to measure an intracellular calcium concentration by determining the quantity of a fluorescence intensity produced in proportion to the calcium concentration using a calcium-binding luminescent protein overexpressing cell line such as Aequorin. Specifically, examples include the methods described in Test Examples of the present specification.
Human embryonic kidney cell line HEK293 cells cultured using DMEM culture medium (Invitrogen) with 3% fetal bovine serum (3% FBS)-added was prepared to have a concentration of 2×10^5 cells/mL, and plated in a type I collagen-coated 384-well black plate (clear bottom) (Greiner) so as to be 25 μL/well and cultured in a CO2 incubator overnight. FLIPR Calcium Assay Kit (Molecular Devices) prepared with Hanks-20 mM Hepes buffer (pH 7.4) was added to the cells so as to be 25 μL/well and cultured in the CO2 incubator for 1 hour. Trypsin (SIGMA-ALDRICH, catalog number: T8816, Enzyme Commission Number 3.4.21.4) prepared so as to be 5 U/mL as final concentration (BAEE unit) with Hanks-20 mM Hepes buffer (pH 7.4) was added to a 384-well deep well polypropylene plate (Greiner) to be an agonist reagent plate. Thirty minutes before the measurement using FDSS6000 (Hamamatsu Photonics K.K.), a test compound prepared with Hanks-20 mM Hepes buffer (pH 7.4) was added to the cell so as to be 8 μL/well. The cell plate to which the test compound was added and the reagent plate were set on FDSS6000, 22 μL/well of the agonist solution was added from the reagent plate, and the change in intracellular calcium concentration was measured with a CCD camera. The measurement was carried out at 37° C. for 120 seconds and the addition of reagent from the reagent plate to the cell plate was carried out using a built-in 384-well automatic dispenser of FDSS6000.
Note that Reference Example 1 in Table 3 is the compound represented by formula (XIX) synthesized in the above Reference Example 1 (hereinafter, also referred to as Compound (XIX)). Additionally, the “Comparative Compound” in Table 3 is the compound described in Patent Literature 4 represented by the following formula (XX) (I-343; hereinafter, also referred to as Compound (XX)).

[3] = biological target: T2, PAR2 (Mus musculus, UniProt P55086); test: Measurement of PAR2 agonist (SLIGRL-NH2)-induced salivation in mouse; format: in vivo; details: C57BL/6J male mice, 0.3 mg/mL solution 10 mL/kg orally, 60 min before SLIGRL-NH2 i.p., saliva collected 10 min
T2 construct: orally administered to C57BL/6J male mice (Charles River), 6-10 weeks of age; tissue Charles River; host or cells: Living C57BL/6J male mice (in vivo; saliva secretion)
T2 sequence (P55086 26-399): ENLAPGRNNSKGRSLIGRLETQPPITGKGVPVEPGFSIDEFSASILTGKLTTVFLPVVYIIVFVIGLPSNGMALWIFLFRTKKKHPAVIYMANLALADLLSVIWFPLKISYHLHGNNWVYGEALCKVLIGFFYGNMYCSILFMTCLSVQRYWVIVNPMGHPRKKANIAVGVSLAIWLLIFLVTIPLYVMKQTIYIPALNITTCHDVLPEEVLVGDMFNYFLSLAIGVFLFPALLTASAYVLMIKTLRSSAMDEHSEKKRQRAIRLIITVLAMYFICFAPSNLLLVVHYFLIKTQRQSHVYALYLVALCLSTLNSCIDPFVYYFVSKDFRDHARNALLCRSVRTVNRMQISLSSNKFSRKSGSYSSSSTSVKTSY
Method: The test compound was added to a 0.5% carboxymethyl cellulose solution to which 2% DMSO was added, so as to have the final concentration of 0.3 mg/mL, thereby preparing an administration solution containing the test compound. The administration solution containing the test compound (10 mL/kg) was orally administered to C57BL/6J male mice (Charles River), 6-10 weeks of age, using an oral sonde and a syringe. Forty-five minutes after the administration of the test compound, 10 mL/kg of a 20% (w/v) urethane solution was intraperitoneal administered to the mice which were then anesthetized. Sixty minutes after the administration of the test compound, 10 mL/kg of a 0.1 mg/mL SLIGRL-NH2 (SEQ ID NO: 2) solution was intraperitoneally administered as the PAR2 agonist and a cotton ball was immediately placed in the oral cavity of the mouse to collect the saliva. Ten minutes after the administration of the PAR2 agonist, the cotton ball was removed and weighed to measure the amount of saliva secreted.
Note that Reference Example 1 in Table 4 is Compound (XIX). Additionally, Comparative Compound in Table 4 is Compound (XX).

Row | Structure (SMILES) | inhibition in vivo at 100 µg/mL, 1 mg/kg [1] [%] | IC50 [2] [nM] | Inhibitory activity on the PAR2-dependent saliva secretion (%) [3] [%]
1 | CO[C@H]1CN(C(=O)c2cc3nc(-c4cc(F)c(F)c(F)c4)cc(N(C)c4c(C)cccc4C)n3n2)CC[C@H]1CC(=O)O (relative stereo) [Example 2, 2-((3R*,4S*)-1-(7-((2,6-dimethylphenyl)(methyl)amino)-5-(3,4,5-trifluorophenyl)pyrazolo[1,5-a]pyrimidine-2-carbonyl)-3-methoxypiperidin-4-yl)acetic acid] | 69.7 | 7.54 | 91.3
2 | Cc1n[nH]c(C(=O)N2CCN(C(=O)c3cn4nc(-c5ccc(F)cc5)cc(C(C)(C)C)c4n3)C(C)(C)C2)n1 [Comparative Compound, reference compound] | – | 24.2 | 98.0
3 | CO[C@H]1CN(C(=O)c2cc3nc(-c4ccc(F)c(Cl)c4)cc(N(C)c4c(C)cccc4C)n3n2)CC[C@H]1CC(=O)O (relative stereo) [Example 4, 2-((3R*,4S*)-1-(5-(3-chloro-4-fluorophenyl)-7-((2,6-dimethylphenyl)(methyl)amino)pyrazolo[1,5-a]pyrimidine-2-carbonyl)-3-methoxypiperidin-4-yl)acetic acid] | – | 7.32 | 87.1
4 | CO[C@H]1CN(C(=O)c2cc3nc(-c4cc(F)c(Cl)c(F)c4)cc(N(C)c4c(C)cccc4Cl)n3n2)CC[C@H]1CC(=O)O (relative stereo) [Example 12, 2-((3R*,4S*)-1-(5-(4-chloro-3,5-difluorophenyl)-7-((2-chloro-6-methylphenyl)(methyl)amino)pyrazolo[1,5-a]pyrimidine-2-carbonyl)-3-methoxypiperidin-4-yl)acetic acid] | – | 4.77 | 98.8
5 | CO[C@H]1CN(C(=O)c2cc3nc(-c4ccc(Cl)c(F)c4)cc(N(C)c4c(C)cccc4Cl)n3n2)CC[C@H]1CC(=O)O (relative stereo) [Example 11, 2-((3R*,4S*)-1-(5-(4-chloro-3-fluorophenyl)-7-((2-chloro-6-methylphenyl)(methyl)amino)pyrazolo[1,5-a]pyrimidine-2-carbonyl)-3-methoxypiperidin-4-yl)acetic acid] | – | 6.88 | 97.8
6 | CN(c1c(F)cccc1Cl)c1cc(-c2cc(F)c(F)c(F)c2)nc2cc(C(=O)N3CCC(CC(=O)O)CC3)nn12 [Example 17, 2-(1-(7-((2-chloro-6-fluorophenyl)(methyl)amino)-5-(3,4,5-trifluorophenyl)pyrazolo[1,5-a]pyrimidine-2-carbonyl)piperidin-4-yl)acetic acid] | – | 3.27 | 94.9
7 | Cc1cccc(C)c1N(C)c1cc(C2CCC(C)(C)CC2)nc2cc(C(=O)N3CC[C@@H](CC(=O)O)[C@@H](F)C3)nn12 (relative stereo) [Example 3, 2-((3R*,4S*)-1-(5-(4,4-dimethylcyclohexyl)-7-((2,6-dimethylphenyl)(methyl)amino)pyrazolo[1,5-a]pyrimidine-2-carbonyl)-3-fluoropiperidin-4-yl) acetic acid] | – | 8.73 | 86.7
8 | CCCN(c1cc(-c2cc(F)c(Cl)c(F)c2)nc2cc(C(=O)N3CC[C@@H](CC(=O)O)[C@@H](C)C3)nn12)C(C)C (relative stereo) [Example 18, 2-((3R*,4S*)-1-(5-(4-chloro-3,5-difluorophenyl)-7-(isopropyl(propyl)amino)pyrazolo[1,5-a]pyrimidine-2-carbonyl)-3-methylpiperidin-4-yl)acetic acid] | – | 7.38 | 95.1
9 | CN(c1ccccc1Cl)c1cc(-c2cc(F)c(Cl)c(F)c2)nc2cc(C(=O)N3CC[C@@H](CC(=O)O)[C@@H](F)C3)nn12 (relative stereo) [Example 14, 2-((3R*,4S*)-1-(5-(4-chloro-3,5-difluorophenyl)-7-((2-chlorophenyl)(methyl)amino)pyrazolo[1,5-a]pyrimidine-2-carbonyl)-3-fluoropiperidin-4-yl)acetic acid] | – | 5.08 | 92.5
10 | CC(C)CN(c1cc(-c2cc(F)c(F)c(F)c2)nc2cc(C(=O)N(C)[C@H](C)CC(=O)O)nn12)[C@H](C)C(C)C [Example 9, (R)-3-(7-(isobutyl((R)-3-methylbutan-2-yl)amino)-N-methyl-5-(3,4,5-trifluorophenyl)pyrazolo[1,5-a]pyrimidine-2-carboxamide)butanoic acid] | – | 4.9 | 96.0
